{
  "source": "patent US5942641A",
  "about": "“Fluorenone derivatives, process for preparing the same and central or peripheral nerve degeneration repair and protective agent” (Otsuka Pharmaceutical Co., Ltd., priority 1993, dated 1999)",
  "key": {"[1]": {"test_system": "hyperoxidation reaction of lipid (microsome fraction)", "experiment": "Pharmacological test 3: antioxidation action, hyperoxidation reaction of lipid due to ascorbic acid induction in liver microsome fraction (TBA value)", "assay_type": "biochemical, Wister rat", "details": "37° C., 15 minutes; 200 μM ascorbic acid, 20 μM ferrous sulfate; read-out: IC50 (antioxidation, 50% inhibition concentration)", "procedure": "(The measurement of antioxidation action)\nThe antioxidation action was measured using the hyperoxidation reaction of lipid due to ascorbic acid induction [Shimada, O. and Yasuda, H. BBA489, 163-172 (1977)].\nMicrosome fraction was obtained from a lever of Wister rat by a Kato's method [J. Biochem., 59, 574 (1966)]. This fraction was added to a 60 mM potassium phosphate buffer solution (containing 45 mM potassium chloride, 200 μM ascorbic acid and 20 μM ferrous sulfate) in an amount of 1 mg/ml and the test compound (0.1% dimethyl sulfoxide) was added, and the mixture was incubated at 37° C. for 15 minutes. The same amount of 10% trichloroacetic acid was added and the resultant was centrifuged. A portion of the supernatant was collected and the amount of malondialdehyde due to thiobarbituric acid (TBA value) was measured [Klaassen, C. D. and Plaa, G. L. Biochem. Pharmacol., 18: 2019 (1969)]. The inhibition ratio was calculated by the following formula:\nInhibition ratio={1-(TBA value of specimen)/(TBA value of […]"}, "[2]": {"test_system": "Nerve cells of the cerebral cortex", "experiment": "Pharmacological test 1: neurite sprouting (NS) of cultured fetal rat cerebral cortex nerve cells, phase contrast microscopy versus control", "assay_type": "cell-based", "design": "key: ++: extremely strong in comparison with the control; +: strong in comparison with the control; ±: same as the control; -: inferior to the control", "details": "Dose 10^-6 (mole); 10 days after initiation of culture", "source_text": "Nerve cells of the cerebral cortex were removed aseptically from a fetal rat (17 days-old) and cultured according to a Asou's method [Asou, H. Brain Res., 332; pages 355-357 (1985)]. After the meninx, blood vessel, etc. were removed from the cerebral hemisphere, they were put through a stainless steel mesh (pore size: 140μm). Then, the isolated cells were floated on a culture medium (Eagle's basal medium containing 10% fetal bovine serum and glucose of 1 g/l) and 1.5×10^6 cells were respectively seeded on a dish (diameter: 35 mm) coated with poly-L-lysine to initiate the culture (37° C., 3% CO2). After 24 hours, the culture medium was replaced by a culture medium containing a test compound and cultured for additional 9 days.\n10 Days after initiation of the culture, neurite sprouting (NS) was evaluated under phase contrast microscopy by comparing with the control group."}, "C-GMP-PDE (type V)": {"biological_target": "T1, C-GMP-PDE (type V) (Homo sapiens, UniProt O76074)", "T1 construct": "from tissue; host or cells: human blood platelets (healthy adult), DEAE-cellulose fraction FI", "experiment": "Pharmacological test 4: C-GMP-PDE (type V) inhibition action", "assay_type": "biochemical", "details": "FI fraction from human blood platelet", "procedure": "(C-GMP-PDE (type V) inhibition action)\nThe separation and purification of PDE from a human blood platelet was conducted according to a method of Hidaka et al. [Hidaka, H. and Asano, I., Biochem. Biophys. Acta 429, 485-497 (1976)]. That is, a blood platelet derived from a healthy adult was washed with water, floated with a Tris buffer solution and centrifuged. Then, the supernatant thereof was applied to DEAE-cellulose and separated into three fractions, FI, FII and FIII due to concentration gradient of sodium acetate. By using FI having high affinity to C-GMP, the inhibition action of the test compound was examined. The influence of the drug on PDE was represented by the inhibition ratio to PDE activity in the absence of the drug."}, "[3]": {"test_system": "mouse dorsal root ganglion cells", "experiment": "Pharmacological Test 2: neurite outgrowth in primary culture of mouse dorsal root ganglion cells", "assay_type": "cell-based, mouse (C57BL/6)", "design": "key: +: positive; ±: false positive; -: negative", "details": "Dose 10^-7 (mole); 7 days culture", "procedure": "(The measurement of neurite outgrowth in primary culture of mouse dorsal root ganglion cells)\nPreparation of cells was conducted according to a method of Horie et al. [H. Horie., FEBS, 296, 23 (1990)]. That is, C57BL/6 male mice aged 10 to 15 weeks were used. They were bleeded to death under ether anesthetization and the backbone from cervical vertebra to sacral vertebra was removed. The capsule of dorsal root ganglion of which ventral root and dorsal root had been cut was stripped in a Ham F12 medium (Flow laboratories) and then ganglia were treated with 0.25% collagenase (Worthington Biochemical Corporation) at 37° C. for 90 minutes. The medium was replaced by a Hank's physiological buffer solution containing no calcium and magnesium and cells were treated with 0.25% trypsin (Flow Laboratories) at room temperature for 20 minutes. A trypsin inhibitor (Sigma, 100 μg/ml) was added to terminate the enzyme reaction and trituration was conducted 20 times using a tapered Pasteur pipette. The medium was replaced again by the Ham F12 medium and cells were put through a nylon mesh (150 μm) to remove a cell mass which had not been separated. Cells were suspended in the Ham F12 medium containing a N1 additive [Bottenstein, J. E., Exp. Cell. Res., 125, 183 (1980)] (kanamycin of 60 μg/ml added).\nA poly-1-lysine-coating cell disc as a culture medium which had been subjected to 10 μg/ml laminin (Koken Cell Gen) coating treatment at 37° C. for 3 hours was placed on a 24 well dish and nerve cells (5000 to 10000 cells/dish) were seeded. The test compound (concentration: 0.01 mol/l) was dissolved in dimethyl sulfoxide and diluted with a phosphate buffer solution to adjust to a final concentration, and then added to a culture solution. Cells were cultured in 5% CO2 -95% air phase at 37° C. for 7 days.\nFor the measurement of neurite outgrowth, the cell disc was washed with a phosphate buffer solution 7 days after initiation of the culture and immobilized with 4% paraformaldehyde at 4° C. for 24 hours, and then immune staining was conducted with Vecstatin ABC kit (Vector) using a neurofilament antibody (200 kD, manufactured by Boehringer Mannheim GmbH). The periphery of the cell disc was restrictively observed under microscopy, and the amount of neurofilament (whole length per well) was evaluated by comparing with the control well according to the following criteria: positive (+), false positive (±) and negative (-)."}},
  "data": [
    {"smiles": "C=CCc1cc2c(cc1O)C(=O)c1c-2ccc(O)c1CC=C", "note": "[Example 47, 1,6-Diallyl-2,7-dihydroxyfluorenone]", "values": [
      {"measurement": "IC50", "setting": "[1]", "value": 200, "unit": "nM"},
      {"measurement": "neurite sprouting (NS)", "setting": "[2]", "value": "+"},
      {"measurement": "IC50", "setting": "C-GMP-PDE (type V)", "value": 3400, "unit": "nM"},
      {"measurement": "Neurite outgrowth action", "setting": "[3]", "value": "+"}
    ]},
    {"smiles": "C=CCc1cc2c(cc1O)C(=O)c1cc(O)c(CC=C)cc1-2", "note": "[Example 49]", "values": [
      {"measurement": "IC50", "setting": "[1]", "value": 2100, "unit": "nM"},
      {"measurement": "neurite sprouting (NS)", "setting": "[2]", "value": "+"},
      {"measurement": "IC50", "setting": "C-GMP-PDE (type V)", "value": 2200, "unit": "nM"},
      {"measurement": "Neurite outgrowth action", "setting": "[3]", "value": "+"}
    ]}
  ]
}
